What was measured:
Test in all cases: NCI 60 cell line screen
Assay type in all cases: cell-based, human
[1] = tested on: CAKI-1; settings: Homo sapiens; CAKI-1, Renal Cancer; read-out: Percent growth
Experimental: (§1) Anticancer profiling over a panel of 60 cancer cell lines was carried out at the National Cancer Institute (NCI), Bethesda, Maryland, USA, https://dtp.cancer.gov/discovery_development/nci-60/methodology.htm (Last visit 22 September 2021), using the standard procedure (detailed procedure is located in the Supplementary Information page 50 s).
(§2) NCI standard procedure for 60 cell lines assay
(§3) The human tumor cell lines of the cancer screening panel are grown in RPMI 1640 mediu m containing 5% fetal bovine serum and 2 mM L-glutamine. For a typical screening experiment, cells are inoculated into 96 well microtiter plates in 100 μL at plating densities ranging from 5,000 to 40,000 cells/well depending on the doubling time of individual cell lines. After cell inoculation, the microtiter plates are incubated at 37° C, 5 % CO2, 95 % air and 100 % relative humidity for 24 h prior to addition of experimental drugs.
(§4) After 24 h, two plates of each cell line are fixed in situ with TCA, to represent a measurement of the cell population for each cell line at the time of drug addition (Tz). Experimental drugs are solubilized in dimethyl sulfoxide at 400-fold the desired final maximum test concentration (10 µM) and stored frozen prior to use. At the time of drug addition, an aliquot of frozen concentrate is thawed and diluted to twice the desired final maximum test concentration with co mp lete medium containing 50 μg/ml gentamicin. Additional four, 10-fold or ½ log serial dilutions are made to provide a total of five drug concentrations plus control. Aliquots of 100 μl of these different drug dilutions are added to the appropriate microtiter wells already containing 100 μl of medium, resulting in the required final drug concentrations.
(§5) Following drug addition, the plates are incubated for an additional 48 h at 37°C, 5 % CO2, 95 % air, and 100 % relative humidity. For adherent cells, the assay is terminated by the addition of cold TCA. Cells are fixed in situ by the gentle addition of 50 μl of cold 50 % (w/v) TCA (final concentration, 10 % TCA) and incubated for 60 minutes at 4°C. The supernatant is discarded, and the plates are washed five times with tap water and air dried. Sulforhodamine B (SRB) solution (100 μl) at 0.4 % (w/v) in 1 % acetic acid is added to each well, and plates are incubated for 10 minutes at room temperature. After staining, unbound dye is removed by washing five times with 1 % acetic acid and the plates are air dried. Bound stain is subsequently solubilized with 10 mM trizma base, and the absorbance is read on an automated plate reader at a wavelength of 515 nm. For suspension cells, the methodology is the same except that the assay is terminated by fixing settled cells at the bottom of the wells by g ently adding 50 μl of 80 % TCA (final concentration, 16 % TCA). Using the seven absorbance measurements [time zero, (Tz), control growth, (C), and test growth in the presence of drug at the five concentration levels (Ti)], the percentage growth is calculated at each of the drug concentrations levels. Percentage growth inhibition is calculated as:
(§6) [(Ti-Tz)/(C-Tz)] x 100 for concentrations for which Ti>/=Tz
(§7) [(Ti-Tz)/Tz] x 100 for concentrations for which Ti<Tz.
(§8) Three dose response parameters are calculated for each experimental agent. Growth inhibition of […]
(§9) resulting in a 50% reduction in the net protein increase (as measured by SRB staining) in control cells during the drug incubation. The drug concentration resulting in total growth inhibition […]
(§10) (TGI) is calculated from Ti = Tz.

[2] = tested on: SR; settings: for activity at 10 µM: Homo sapiens, Leukemia, read-out: Percent growth
Experimental: as §1, §2, §3, §4, §5, §6, §7, §8, §9, §10

[3] = tested on: NCI-H522; settings: Homo sapiens; NCI-H522, Non-Small Cell Lung Cancer; read-out: Percent growth
Experimental: as §1, §2, §3, §4, §5, §6, §7, §8, §9, §10

[4] = tested on: KM12; settings: Homo sapiens; KM12, Colon Cancer; read-out: Percent growth
Experimental: as §1, §2, §3, §4, §5, §6, §7, §8, §9, §10

[5] = tested on: OVCAR-4; settings: Homo sapiens; OVCAR-4, Ovarian Cancer; read-out: Percent growth
Experimental: as §1, §2, §3, §4, §5, §6, §7, §8, §9, §10

[6] = tested on: NCI-H226; settings: Homo sapiens; NCI-H226, Non-Small Cell Lung Cancer; read-out: Percent growth
Experimental: as §1, §2, §3, §4, §5, §6, §7, §8, §9, §10

[7] = tested on: K-562; settings: Homo sapiens, K562; K-562, Leukemia; read-out: Percent growth
Experimental: as §1, §2, §3, §4, §5, §6, §7, §8, §9, §10

[8] = tested on: SF-295; settings: Homo sapiens; SF-295, CNS-Cancer; read-out: Percent growth
Experimental: as §1, §2, §3, §4, §5, §6, §7, §8, §9, §10

[9] = tested on: NCI-H460; settings: Homo sapiens; NCI-H460, Non-Small Cell Lung Cancer; read-out: Percent growth
Experimental: as §1, §2, §3, §4, §5, §6, §7, §8, §9, §10

[10] = tested on: RXF 393; settings: Homo sapiens; RXF 393, Renal Cancer; read-out: Percent growth
Experimental: as §1, §2, §3, §4, §5, §6, §7, §8, §9, §10

[11] = tested on: RPMI-8226; settings: Homo sapiens; RPMI-8226, Leukemia; read-out: Percent growth
Experimental: as §1, §2, §3, §4, §5, §6, §7, §8, §9, §10

[12] = tested on: MDA-MB-468; settings: Homo sapiens; MDA-MB-468, Breast Cancer; read-out: Percent growth
Experimental: as §1, §2, §3, §4, §5, §6, §7, §8, §9, §10

[13] = tested on: SNB-75; settings: Homo sapiens; SNB-75, CNS-Cancer; read-out: Percent growth
Experimental: as §1, §2, §3, §4, §5, §6, §7, §8, §9, §10

[14] = tested on: T-47D; settings: for activity at 10 µM: Homo sapiens, T47D, Breast Cancer, read-out: Percent growth
Experimental: as §1, §2, §3, §4, §5, §6, §7, §8, §9, §10

[15] = tested on: SK-MEL-5; settings: for activity at 10 µM: Homo sapiens, SK-MEL-5, Melanoma, read-out: Percent growth
Experimental: as §1, §2, §3, §4, §5, §6, §7, §8, §9, §10

[16] = tested on: NCI/ADR-RES; settings: Homo sapiens, Ovarian Cancer, read-out: Percent growth
Experimental: as §1, §2, §3, §4, §5, §6, §7, §8, §9, §10

[17] = tested on: HOP-92; settings: Homo sapiens; HOP-92, Non-Small Cell Lung Cancer; read-out: Percent growth
Experimental: as §1, §2, §3, §4, §5, §6, §7, §8, §9, §10

[18] = tested on: HT29; settings: Homo sapiens, HT-29; HT29, Colon Cancer; read-out: Percent growth
Experimental: as §1, §2, §3, §4, §5, §6, §7, §8, §9, §10

[19] = tested on: EKVX; settings: Homo sapiens, Non-Small Cell Lung Cancer, read-out: Percent growth
Experimental: as §1, §2, §3, §4, §5, §6, §7, §8, §9, §10

[20] = tested on: U251; settings: Homo sapiens, U-251; U251, CNS-Cancer; read-out: Percent growth
Experimental: as §1, §2, §3, §4, §5, §6, §7, §8, §9, §10

Compound	activity at 10 µM [1]	activity at 10 µM [2]	activity at 10 µM [3]	activity at 10 µM [4]	activity at 10 µM [5]	activity at 10 µM [6]	activity at 10 µM [7]	activity at 10 µM [8]	activity at 10 µM [9]	activity at 10 µM [10]	activity at 10 µM [11]	activity at 10 µM [12]	activity at 10 µM [13]	activity at 10 µM [14]	activity at 10 µM [15]	activity at 10 µM [16]	activity at 10 µM [17]	activity at 10 µM [18]	activity at 10 µM [19]	activity at 10 µM [20]	also measured
O=S(=O)(NCCCNc1nccc(-n2cnc3ccccc32)n1)c1ccc(Br)cc1 [12k, N-(3-((4-(1H-benzo [d]imidazol-1-yl)pyrimidin-2-yl)amino)propyl)-4-bromo benzenesulfonamide]	84.5%	70.8%	75.5%	68.3%	72.1%	80.2%	73.5%	86.5%	94.3%	111%	71.1%	70.7%	86.1%	45.3%	53.5%	88.9%	79.3%	103%	81.5%	96.6%	percent inhibition ([2]; NCI-60 heat map analysis): 30%; percent inhibition ([14]; NCI-60 heat map analysis): 55%; percent inhibition ([15]; SK-MEL-5, NCI-60 heat map analysis): 40%
COc1ccc(S(=O)(=O)NCCCNc2nccc(-n3cnc4ccccc43)n2)cc1 [12m, N-(3-((4-(1H-benzo [d]imidazol-1-yl)pyrimidin-2-yl)amino)propyl)-4-methoxy benzenesulfonamide]	68.8%	77.6%	81.1%	84.1%	77.4%	73.2%	78.8%	90.5%	97.3%	80.6%	78.6%	77.2%	88.2%	66.3%	70.1%	105%	75.8%	99.7%	84.4%	94.5%	
O=S(=O)(NCCNc1nccc(-n2cnc3ccccc32)n1)c1ccc(Br)cc1 [12d, N-(2-((4-(1H-benzo [d]imidazol-1-yl)pyrimidin-2-yl)amino)ethyl)-4-bromobenzenesulfonamide]	81.5%	75.1%	87.2%	85.4%	82.2%	76.5%	88.4%	96.5%	101%	101%	79.8%	84%	74.1%	59.1%	89.1%	97.6%	74.2%	97.2%	83.4%	98.6%	
COc1ccc(S(=O)(=O)NCCNc2nccc(-n3cnc4ccccc43)n2)cc1 [12f, N-(2-((4-(1H-benzo [d]imidazol-1-yl)pyrimidin-2-yl)amino)ethyl)-4-methoxy benzenesulfonamide]	79.6%	89.2%	84.4%	93.2%	84.3%	80.6%	93%	97%	106%	94.6%	94%	80.3%	78.8%	82.3%	92.2%	98.7%	75.4%	100%	89.2%	103%	
O=S(=O)(NCCCNc1nccc(-n2cnc3ccccc32)n1)c1ccc(Cl)cc1 [12j, N-(3-((4-(1H-benzo [d]imidazol-1-yl)pyrimidin-2-yl)amino)propyl)-4-chloro benzenesulfonamide]	94.5%	81.5%	82.8%	92%	83%	83.2%	79.2%	97.8%	99.8%	124%	78%	93.8%	91.7%	65.3%	76.2%	98.2%	94.6%	104%	91%	100%	
O=S(=O)(NCCNc1nccc(-n2cnc3ccccc32)n1)c1ccc(F)cc1 [12b, N-(2-((4-(1H-benzo [d]imidazol-1-yl)pyrimidin-2-yl)amino)ethyl)-4-fluorobenzenesulfonamide]	82%	85.8%	71.8%	73.4%	72.3%	77.5%	84%	93.6%	96.3%	106%	73.6%	71.6%	73.6%	64.4%	78%	103%	82.3%	94.4%	85.2%	99.5%	
O=S(=O)(NCCNc1nccc(-n2cnc3ccccc32)n1)c1ccccc1 [12a, N-(2-((4-(1H-benzo [d]imidazol-1-yl)pyrimidin-2-yl)amino)ethyl)benzenesulfonamide]	83.7%	97.5%	93.8%	100%	93.4%	84.6%	84.8%	97.3%	103%	113%	84.9%	94.3%	91.8%	75.4%	95.8%	104%	73.3%	102%	91.2%	103%	
